Consider nine compounds from PubChem BioAssay AID1259407 (Chemical Carcinogenesis Research Information System (CCRIS), 2018).

The data set concerns CCRIS mutagenicity, Ames/micronucleus/aberration tests. In words: CCRIS mutagenicity studies.
[1] abbreviates: Test System: AMES SALMONELLA TYPHIMURIUM, Strain/Indicator: TA98, Metabolic Activation: NONE, Method: PREINCUBATION
Where [2] appears, read: Test System: AMES SALMONELLA TYPHIMURIUM, Strain/Indicator: TA98, Metabolic Activation: RAT, LIVER, S-9, AROCLOR 1254, Method: PREINCUBATION
[3] abbreviates: Test System: AMES SALMONELLA TYPHIMURIUM, Strain/Indicator: TA100, Metabolic Activation: NONE, Method: PREINCUBATION
[4] abbreviates: Test System: AMES SALMONELLA TYPHIMURIUM, Strain/Indicator: TA100, Metabolic Activation: RAT, LIVER, S-9, AROCLOR 1254, Method: PREINCUBATION

Calls of active or inactive are those of the source. The rule behind the calls is not given here.

For `OCc1c2ccccc2c2ccc3cccc4ccc1c2c43`, the mutagenic call is, setting by setting: (Test System: AMES SALMONELLA TYPHIMURIUM, Strain/Indicator: TA98, Metabolic Activation: RAT, LIVER, CYTOSOL AND PAPS-GENERATING SYSTEM, Method: PREINCUBATION) “active; positive”; (Test System: AMES SALMONELLA TYPHIMURIUM, Strain/Indicator: TA100, Metabolic Activation: RAT, LIVER, CYTOSOL AND PAPS-GENERATING SYSTEM, Method: PREINCUBATION) “active; positive”; (Test System: AMES SALMONELLA TYPHIMURIUM, Strain/Indicator: TA100, Metabolic Activation: RAT, LIVER, S-9, AROCLOR 1254, Method: STANDARD PLATE) “active; positive”; (Test System: AMES SALMONELLA TYPHIMURIUM, Strain/Indicator: TA1538, Metabolic Activation: RAT, LIVER, S-9, AROCLOR 1254, Method: STANDARD PLATE) “active; positive”; (Test System: CHINESE HAMSTER V-79, Strain/Indicator: V-79 (HGPRT)/6-THIOGUANINE, Metabolic Activation: NONE) “active; positive”; (Test System: CHINESE HAMSTER V-79, Strain/Indicator: V-79 (NA/K-ATPASE)/OUABAIN, Metabolic Activation: NONE) “active; positive”. In addition, the mutagenic call (Test System: CHINESE HAMSTER V-79, Strain/Indicator: V-79/OUABAIN, Metabolic Activation: HAMSTER, EMBRYO, CELL-MEDIATED, Method: STANDARD PLATE) is “active; positive”.

`FC(F)(F)I`: the mutagenic call by setting is: (Test System: AMES SALMONELLA TYPHIMURIUM, Strain/Indicator: TA98, Metabolic Activation: NONE, Method: DESICCATOR) “active; positive”; (Test System: AMES SALMONELLA TYPHIMURIUM, Strain/Indicator: TA98, Metabolic Activation: RAT, LIVER, S-9, AROCLOR 1254, Method: DESICCATOR) “active; positive”; (Test System: AMES SALMONELLA TYPHIMURIUM, Strain/Indicator: TA100, Metabolic Activation: NONE, Method: DESICCATOR) “active; positive”; (Test System: AMES SALMONELLA TYPHIMURIUM, Strain/Indicator: TA100, Metabolic Activation: RAT, LIVER, S-9, AROCLOR 1254, Method: DESICCATOR) “active; positive”; (Test System: AMES SALMONELLA TYPHIMURIUM, Strain/Indicator: TA1535, Metabolic Activation: NONE, Method: DESICCATOR) “active; positive”; (Test System: AMES SALMONELLA TYPHIMURIUM, Strain/Indicator: TA1535, Metabolic Activation: RAT, LIVER, S-9, AROCLOR 1254, Method: DESICCATOR) “active; positive”. The mutagenic call is “active; positive” (Test System: AMES SALMONELLA TYPHIMURIUM, Strain/Indicator: TA1537, Metabolic Activation: NONE, Method: DESICCATOR); “active; positive” (Test System: AMES SALMONELLA TYPHIMURIUM, Strain/Indicator: TA1537, Metabolic Activation: RAT, LIVER, S-9, AROCLOR 1254, Method: DESICCATOR); “inactive; negative” (Test System: AMES SALMONELLA TYPHIMURIUM, Strain/Indicator: TA1538, Metabolic Activation: NONE, Method: DESICCATOR); “inactive; negative” (Test System: AMES SALMONELLA TYPHIMURIUM, Strain/Indicator: TA1538, Metabolic Activation: RAT, LIVER, S-9, AROCLOR 1254, Method: DESICCATOR); “inactive; negative” (Test System: MOUSE LYMPHOMA, Strain/Indicator: L5178Y (TK+/TK-), Metabolic Activation: NONE, Method: SUSPENSION/PLATE); “inactive; negative” (Test System: MOUSE LYMPHOMA, Strain/Indicator: L5178Y (TK+/TK-), Metabolic Activation: RAT, LIVER, S-9, AROCLOR 1254, Method: SUSPENSION/PLATE).

With `BrCc1ccc(CBr)cc1`, the mutagenic call is “inactive; negative” (Test System: AMES SALMONELLA TYPHIMURIUM, Strain/Indicator: TA98, Metabolic Activation: NONE, Method: STANDARD PLATE) and “inactive; negative” (Test System: AMES SALMONELLA TYPHIMURIUM, Strain/Indicator: TA100, Metabolic Activation: NONE, Method: STANDARD PLATE).

On to `Oc1cc(Cl)cc(Cl)c1`, for which the mutagenic call was “inactive; negative” (Test System: AMES SALMONELLA TYPHIMURIUM, Strain/Indicator: TA98, Metabolic Activation: HAMSTER, LIVER, S-9, AROCLOR 1254, Method: PREINCUBATION); “inactive; negative” under setting [1]; “inactive; negative” under setting [2]; “inactive; negative” (Test System: AMES SALMONELLA TYPHIMURIUM, Strain/Indicator: TA100, Metabolic Activation: HAMSTER, LIVER, S-9, AROCLOR 1254, Method: PREINCUBATION); “inactive; negative” under setting [3]; “inactive; negative” under setting [4]. Moreover, the mutagenic call (Test System: AMES SALMONELLA TYPHIMURIUM, Strain/Indicator: TA1535, Metabolic Activation: HAMSTER, LIVER, S-9, AROCLOR 1254, Method: PREINCUBATION) is “inactive; negative”; the mutagenic call (Test System: AMES SALMONELLA TYPHIMURIUM, Strain/Indicator: TA1535, Metabolic Activation: NONE, Method: PREINCUBATION) was “inactive; negative”; the mutagenic call (Test System: AMES SALMONELLA TYPHIMURIUM, Strain/Indicator: TA1535, Metabolic Activation: RAT, LIVER, S-9, AROCLOR 1254, Method: PREINCUBATION) was “inactive; negative”; the mutagenic call (Test System: AMES SALMONELLA TYPHIMURIUM, Strain/Indicator: TA1537, Metabolic Activation: HAMSTER, LIVER, S-9, AROCLOR 1254, Method: PREINCUBATION) was “inactive; negative”; the mutagenic call (Test System: AMES SALMONELLA TYPHIMURIUM, Strain/Indicator: TA1537, Metabolic Activation: NONE, Method: PREINCUBATION) was “inactive; negative”; the mutagenic call (Test System: AMES SALMONELLA TYPHIMURIUM, Strain/Indicator: TA1537, Metabolic Activation: RAT, LIVER, S-9, AROCLOR 1254, Method: PREINCUBATION) was “inactive; negative”.

Turning to `O=c1oc2c([N+](=O)[O-])ccc3ccc4cccc1c4c32`, the mutagenic call is “active; positive” (Test System: AMES SALMONELLA TYPHIMURIUM, Strain/Indicator: TA98(1,8-DNP6), Metabolic Activation: NONE, Method: PREINCUBATION); “active; positive” (Test System: AMES SALMONELLA TYPHIMURIUM, Strain/Indicator: TA98(1,8-DNP6), Metabolic Activation: RAT, LIVER, S-9, AROCLOR 1254, Method: PREINCUBATION); “active; positive” (Test System: AMES SALMONELLA TYPHIMURIUM, Strain/Indicator: TA98(NR), Metabolic Activation: NONE, Method: PREINCUBATION); “active; positive” (Test System: AMES SALMONELLA TYPHIMURIUM, Strain/Indicator: TA98(NR), Metabolic Activation: RAT, LIVER, S-9, AROCLOR 1254, Method: PREINCUBATION); “active; positive” under setting [1]; “active; positive” under setting [2]. The mutagenic call is “active; positive” under setting [3] and “active; positive” under setting [4].

On to `O=P(O)(O)CCCl`, for which the mutagenic call reads like this: (End Point: In vitro chromosomal aberrations, Test System: Chinese hamster ovary (CHO-WBL) cells, Metabolic Activation: None) “inactive; negative”; (End Point: In vitro chromosomal aberrations, Test System: Chinese hamster ovary (CHO-WBL) cells, Metabolic Activation: Rat, Liver, S-9, Aroclor 1254) “inactive; negative”; (Test System: Chinese hamster ovary cells, Strain/Indicator: CHO-K1-BH4 (HGPRT)/6-Thioguanine, Metabolic Activation: None, Method: Suspension/Plate?) “inactive; negative (an increase in mutation frequency at 2.5 mg/ml not confirmed in repeat”; (Test System: Chinese hamster ovary cells, Strain/Indicator: CHO-K1-BH4 (HGPRT)/6-Thioguanine, Metabolic Activation: Rat, Liver, S-9, Aroclor 1254, Method: Suspension/Plate?) “inactive; negative (an increase in mutation frequency at 2.5 mg/ml not confirmed in repeat”.

For the compound `CNC(N)=O`, the mutagenic call (End Point: IN VITRO MICRONUCLEUS, Test System: V79 CELLS, Metabolic Activation: NONE) was “inactive; negative”.

`COC1=CC(=O)O[C@@H](CCc2ccccc2)C1`: the mutagenic call (Test System: Mouse lymphoma cells, Strain/Indicator: L5178Y ( tk+/tk-), Metabolic Activation: Human, Liver, S-9, Method: Suspension/plate) was “inactive; negative”.

In the case of `O=C(O)c1cc([N+](=O)[O-])cc([N+](=O)[O-])c1`, the mutagenic call under setting [1] was “active; positive”; the mutagenic call (Test System: AMES SALMONELLA TYPHIMURIUM, Strain/Indicator: TA98, Metabolic Activation: RAT, LIVER, S-9, KANECHLOR 500, Method: PREINCUBATION) is “active; positive”; the mutagenic call under setting [3] was “active; positive”; the mutagenic call (Test System: AMES SALMONELLA TYPHIMURIUM, Strain/Indicator: TA100, Metabolic Activation: RAT, LIVER, S-9, KANECHLOR 500, Method: PREINCUBATION) was “active; positive”.
